Source: patent US20160228434A1, “TREATMENT OF DISEASES CAUSED BY ABNORMAL LYMPHOCYTE FUNCTION WITH AN HDAC6 INHIBITOR” (priority 2013, published 2016)
“Also recorded” adds a separate entry of the source.

Key:
Type in all cases: in vivo
splenic B cells = assay: Splenic B cell developmental stages by flow cytometry in treated NZB/W mice; conditions: either low (5 mg/kg) or high (20 mg/kg) dose
Description: (§1) NZB/W mice were injected intraperitoneally 5 days/week with the vehicle control (DMSO), ACY-738 treatment at 5 mg/kg (low-dose), or ACY-738 treatment at 20 mg/kg (high-dose) beginning at 22-weeks-of-age until euthanization at 38 weeks-of-age. ACY-738 was received from Acetylon Pharmaceuticals for use in all studies. Proteinuria and weight were measured every 2 weeks and blood was collected every four weeks for sera analysis. Proteinuria was measured by a standard semi-quantitative test using Siemens Uristix dipsticks (Siemens Healthcare, Deerfield, Ill., USA). Results were quantified according to the manufacturer's instructions and scored as follows: dipstick reading of 0 mg/dL=0, trace=1, 30-100 mg/dL=2, 100-300 mg/dL=3, 300-2000 mg/dL=4, and 2000+ mg/dL=5.
Following euthanization, spleens were removed and single-cell suspensions of splenocytes were incubated with PerCP710 conjugated IgM, FITC conjugated AA4.1, PE conjugated CD23, and APC conjugated CD21 anti-mouse mAbs (eBioscience, San Diego, Calif., USA). IgM^+ cells were analyzed for the expression of AA4.1, CD23 and CD21 and divided into the following developmental stages using flow cytometry: T1 (IgM^+ CD23^− AA4.1^+ CD21^−), T2 (IgM^hi CD23^+ AA4.1^+ CD21^+), T3 (IgM^lo CD23^+ AA4.1^+ CD21^+), F0 (IgM^+ CD23^+ AA4.1^− CD21^−), MZ (IgM^+ CD23^− AA4.1^− CD21^+) or B1 (IgM^+ CD23^− AA4.1^− CD21^−). […]

[1] = tested on: peripheral B cells (IgM+B220+); assay: Peripheral B cells by flow cytometry in treated NZB/W mice; conditions: 38-week-old NZB/W mice, either low (5 mg/kg) or high (20 mg/kg) dose
Description: as §1
Blood was collected prior to euthanization using retro-orbital bleeding. RBCs from the peripheral blood were lysed and single cell suspensions were labeled using FITC-conjugated B220 and PerCep710 conjugated IgM anti-mouse mAbs (eBioscience, San Diego, Calif., USA). Mature B cells were identified as IgM^+B220^+ cells. Flow cytometry data was analyzed using FlowJo.
Similarly, a single-cell suspension of peripheral B cells was obtained from the blood of 38-week-old NZB/W mice and stained for IgM and B220. […]

NZB/W mice [2] = assay: Survival rate and disease progression (body weight, proteinuria, spleen weight) in NZB/W mice; conditions: for proteinuria: every 2 weeks
Description: as §1
However, half of the NZB/W mice receiving the vehicle control alone died before termination of the study at 38 weeks-of-age (FIG. 6 A). Body weight increased as NZB/W mice aged following treatment with ACY-738. Vehicle control-treated NZB/W mice experienced weight loss concomitantly with increased proteinuria (FIG. 6 B).
Throughout the treatment period, NZB/W mice were monitored for changes in proteinuria and body weight.
Because SLE is characterized by enlargement of the spleen, splenomegaly was assessed in mice following euthanization by determining the total spleen weight along with the spleen: body weight ratio. Both spleen weight and spleen: body weight ratio were decreased following HDAC6 inhibition in a concentration dependent manner (FIG. 6 D-E).

sera TGF-β and IL-1β = assay: Sera IL-1β and TGF-β levels by ELISA in treated NZB/W mice
Description: as §1
IL-1β and TGF-β levels were measured from the sera by ELISA according to the manufacturer's protocol (eBioscience, San Diego, Calif., USA). The plate was read at 450 nm on a microplate spectrophotometer.
IL-1β and TGF-β levels in the sera of NZB/W mice were measured every 4 weeks starting from 22 weeks until euthanization at 38 weeks-of-age (FIG. 8 A-B). At 22 weeks-of-age there were no significant differences in cytokine levels amongst the three groups. As the NZB/W mice aged, sera levels of TGF-β decreased whereas levels of IL-1β increased (FIG. 8 A-B).

NZB/W mice [3] = assay: SLE-associated renal pathology (PAS-stained kidney sections, glomerular score) in treated NZB/W mice
Description: as §1
At the time of euthanization, the kidneys were removed and cut in half. One half of the kidney from each mouse was fixed in formalin, embedded in paraffin, sectioned, and stained with Periodic acid-Schiff (PAS). Kidney sections were scored (0-4) for glomerular proliferation, inflammation, crescent formation, necrosis, and by a pathologist, Dr. David Caudell, in a blinded manner.
In order to assess renal disease, kidney sections were embedded in paraffin and stained by PAS. […] NZB/W mice treated with DMSO alone had thickened, irregular glomerular basement membranes, increased cellularity, fibrosis and crescent formation (see FIG. 11 A). […] Sections were assessed for glomerular proliferation, inflammation, number of nuclei per glomerulus, crescent formation, and fibrosis by a blinded pathologist, and a glomerular score (0-4) was assigned. NZB/W mice that were treated with the vehicle control alone received an average score of 4 compared to an average score of 2 from mice that received the high-dose of ACY-738 (FIG. 11 C).

[4] = NZB/W mice after euthanization at 38 weeks, 5 and 20 mg/kg, concentration dependent

## O=C(NO)c1cnc(NC2(c3ccccc3)CC2)nc1 [ACY-738]
Splenic B cells
  splenic B cell populations (T1, T2, T3, F0, MZ, B1): did not significantly affect; also recorded: no effect
[1]
  percentage of peripheral B cells (IgM+B220+): no effect
NZB/W mice [2]; [4]
  spleen weight: decreased
  spleen: body weight ratio: decreased
NZB/W mice [2]; NZB/W mice, 22-38 weeks-of-age, vehicle mice lost weight
  body weight: increased
NZB/W mice [2]; NZB/W mice, high (20 mg/kg) or low (5 mg/kg) dose, to 38 weeks-of-age, half of vehicle mice died
  survival: survived to the completion of the study
NZB/W mice [2]; NZB/W mice, high dose 20 mg/kg, 22-38 weeks-of-age, 20 mg/kg
  proteinuria: prevented proteinuria from increasing; also recorded: significantly attenuated
NZB/W mice [2]; NZB/W mice, low dose 5 mg/kg, 22-38 weeks-of-age
  proteinuria: gradually increased
Sera TGF-β and IL-1β; 38-week-old NZB/W mice, low and high dose, levels rise with age
  sera IL-1β level: significantly decreased; also recorded: attenuated the increase
Sera TGF-β and IL-1β; NZB/W mice, 22 to 38 weeks-of-age, 5 and 20 mg/kg, levels fall in vehicle mice with age
  sera TGF-β level: reverse this trend in a dose-dependent manner; also recorded: attenuated the reduction
NZB/W mice [3]; 5 mg/kg, PAS-stained sections
  kidney pathology: did not significantly alter
NZB/W mice [3]; 20 mg/kg, PAS-stained sections, lack of fibrosis and crescent bodies
  SLE renal pathology: significantly reduced
NZB/W mice [3]; high dose (20 mg/kg), vehicle control average score 4
  average glomerular score (0-4): 2
